Article PMC10082216 (Nature Communications, 2023)
Values joined by “and” are separate entries in the source; they are usually repeats but may differ in a detail not shown here. Identical values can stand only once. Like-named read-outs stand apart in the source and are kept apart here.

Experiment: TD-6450 phase I clinical study (SAD/MAD): pharmacokinetics
Assay type: in vivo, human
Conditions: for Cmax: read-out: Cmax Mean ± SD; for half-life: read-out: t1/2 Mean ± SD (converted)
Description: Primary and secondary outcomes were pre-defined as follows: Safety and tolerability as a primary outcome, pharmacokinetics as a secondary outcome. Safety and tolerability were evaluated using standard measures, including adverse event (AE) monitoring, clinical laboratory tests (hematology, serum chemistry, coagulation, and urinalysis), vital signs, physical examinations, and 12-lead electrocardiograms (ECGs). […]
This study was conducted in two parts, Part A (SAD) and Part B (MAD). For the Part A, the age of enrolled subjects ranged from 20 to 60 years, with a mean age range of 32.1 to 46.2 years. Most subjects were male (73 total subjects) and most were white (55 subjects) or black (22 subjects). For Part B of the study, ages ranged from 23 to 60 years with a similar mean age across treatment groups. Most subjects were male (25 total subjects) and all were either white (18 subjects) or black (12 subjects). For each part of the study, the mean body mass index (BMI) and creatinine clearance were similar across treatment groups. […] Part A: Healthy subjects were sequentially enrolled and randomly assigned to each dose cohort (up to 10 dose-ascending cohorts were planned, including a fed arm in the food effect cohort) to receive either a single dose of TD-6450 or placebo. For each dose cohort, 8 subjects were randomized in a 3:1 ratio (6 subjects received TD-6450 and 2 subjects received placebo). The starting dose of TD-6450 was 0.5 mg with a planned maximum dose of 1000 mg. Upon review of the 500-mg cohort PK data, the decision was made to not escalate to the 1000-mg cohort because of exposure saturation at ≥ 500 mg. The following doses were administered: 0.5 mg, 1.5 mg, 5 mg, 15 mg, 30 mg, 60 mg, 120 mg, 240 mg, and 500 mg. Part B: Healthy subjects were sequentially enrolled in 3 ascending dose cohorts (TD-6450 60 mg, 120 mg, and 240 mg) and randomly assigned to receive either TD-6450 or placebo as once daily doses for 14 days. For each dose cohort, 10 subjects were randomized in a 4:1 ratio (8 subjects received TD-6450 and 2 subjects received placebo). Blinded safety, tolerability, and available PK data after each dose cohort were reviewed by the Safety Data Review Committee (SDRC) before escalation to the next dosing cohort for both part A and B. Subjects of the clinical study were randomly assigned to each cohort. Randomizations codes were assigned to the subjects. All study subjects, study investigators, and the sponsor’s staff involved in the conduct of the study were blinded to treatment assignment. The only personnel who had access to the randomization code before database lock were: The pharmacist or pharmacy staff member who prepared drug or placebo capsules for administration to the subject according to the randomization code and the bioanalytical contract laboratory that analyzed the PK samples (plasma and urine).

[1] = Male subjects, SAD arm NCT02022306, Dose 30.00, 3 Hours
[2] = Male subjects, SAD arm NCT02022306, Dose 30.00, 4 Hours
[3] = Male subjects, SAD arm NCT02022306, Dose 30.00, 72 Hours
[4] = Male subjects, SAD arm NCT02022306, Dose 30.00, 96 Hours
[5] = Male subjects, SAD arm NCT02022306, Dose 30.00, 120 Hours
[6] = Male subjects, SAD arm NCT02022306, Dose 30.00, 144 Hours
[7] = Male subjects, SAD arm NCT02022306, Dose 30.00, 168 Hours
[8] = Male subjects, SAD arm NCT02022306, Dose 30.00, Predose
[9] = both sexes, human, plasma, oral, 1.5 mg, SAD 1.5 mg
[10] = both sexes, human, plasma, oral, 5 mg, SAD 5 mg
[11] = both sexes, human, plasma, oral, 15 mg, SAD 15 mg
[12] = both sexes, human, plasma, oral, 30 mg, SAD 30 mg

`CNC(=O)N1C[C@@H](C)N(c2ccc(C(=O)Nc3ccc(-c4ccc(-c5c[nH]c([C@@H]6CCCN6C(=O)[C@@H](NC(=O)OC)C(C)C)n5)cc4)c(OC(F)(F)F)c3)cn2)C[C@@H]1C` [TD-6450] gave a Concentration (Female subjects, SAD arm NCT02022306, Dose 0.50, Predose) of 0.00 ng/mL, a Concentration (Female subjects, SAD arm NCT02022306, Dose 5.00, Predose) of 0.00 ng/mL and a Concentration (Female subjects, SAD arm NCT02022306, Dose 15.00, Predose) of 0.00 ng/mL. For the same molecule, the Concentration (Female subjects, SAD arm NCT02022306, Dose 30.00, 3 Hours) was 41.80 ng/mL, the Concentration (Female subjects, SAD arm NCT02022306, Dose 30.00, 4 Hours) was 44.70 ng/mL and the Concentration (Female subjects, SAD arm NCT02022306, Dose 30.00, 6 Hours) was 43.90 ng/mL. It also gave a Concentration (Female subjects, SAD arm NCT02022306, Dose 30.00, 8 Hours) of 35.40 ng/mL, a Concentration (Female subjects, SAD arm NCT02022306, Dose 30.00, 12 Hours) of 27.90 ng/mL and a Concentration (Female subjects, SAD arm NCT02022306, Dose 30.00, 24 Hours) of 20.20 ng/mL. The Concentration (Female subjects, SAD arm NCT02022306, Dose 30.00, 48 Hours) was 17.50 ng/mL, the Concentration (Female subjects, SAD arm NCT02022306, Dose 30.00, 72 Hours) was 12.70 ng/mL and the Concentration (Female subjects, SAD arm NCT02022306, Dose 30.00, 96 Hours) was 9.33 ng/mL. It also gave a Concentration (Female subjects, SAD arm NCT02022306, Dose 30.00, 120 Hours) of 7.89 ng/mL, a Concentration (Female subjects, SAD arm NCT02022306, Dose 30.00, 144 Hours) of 6.17 ng/mL and a Concentration (Female subjects, SAD arm NCT02022306, Dose 30.00, 168 Hours) of 4.12 ng/mL. It also gave a Concentration (Female subjects, SAD arm NCT02022306, Dose 30.00, Predose) of 0.00 ng/mL, a Concentration (Female subjects, SAD arm NCT02022306, Dose 60.00, Predose) of 0.00 ng/mL and a Concentration (Male subjects, SAD arm NCT02022306, Dose 0.50, Predose) of 0.00 ng/mL. For the same molecule, the Concentration (Male subjects, SAD arm NCT02022306, Dose 1.50, Predose) was 0.00 ng/mL, the Concentration (Male subjects, SAD arm NCT02022306, Dose 5.00, Predose) was 0.00 ng/mL and the Concentration (Male subjects, SAD arm NCT02022306, Dose 15.00, Predose) was 0.00 ng/mL. For the same molecule, the Concentration [1] was 16.10 ng/mL, the “Concentration (ng/ml)” value [1] was 14.80 ng/mL and the Concentration [2] was 17.80 ng/mL. The “Concentration (ng/ml)” value [2] was 18.90 ng/mL, the Concentration (Male subjects, SAD arm NCT02022306, Dose 30.00, 6 Hours) was 21.60 ng/mL and the Concentration (Male subjects, SAD arm NCT02022306, Dose 30.00, 8 Hours) was 20.90 ng/mL. It also gave a Concentration (Male subjects, SAD arm NCT02022306, Dose 30.00, 12 Hours) of 16.40 ng/mL, a Concentration (Male subjects, SAD arm NCT02022306, Dose 30.00, 24 Hours) of 12.70 ng/mL and a Concentration (Male subjects, SAD arm NCT02022306, Dose 30.00, 48 Hours) of 9.02 ng/mL. For the same molecule, the Concentration [3] was 7.45 ng/mL, the “Concentration (ng/ml)” value [3] was 9.39 ng/mL and the Concentration [4] was 6.04 ng/mL. The “Concentration (ng/ml)” value [4] was 7.13 ng/mL, the Concentration [5] was 4.98 ng/mL and the “Concentration (ng/ml)” value [5] was 5.80 ng/mL. For the same molecule, the Concentration [6] was 3.71 ng/mL, the “Concentration (ng/ml)” value [6] was 4.24 ng/mL and the Concentration [7] was 3.30 ng/mL. For the same molecule, the “Concentration (ng/ml)” value [7] was 3.28 ng/mL, the Concentration [8] was 0.00 ng/mL and the “Concentration (ng/ml)” value [8] was 0.00 ng/mL. The “Concentration (ng/ml)” value (Male subjects, SAD arm NCT02022306, Dose 60.00, 8 Hours) was 61.90 ng/mL and 92.80 ng/mL and 97.50 ng/mL and 65.40 ng/mL, the “Concentration (ng/ml)” value (Male subjects, SAD arm NCT02022306, Dose 60.00, Predose) was 0.00 ng/mL and the “Concentration (ng/ml)” value (Male subjects, SAD arm NCT02022306, Dose 120.00, Predose) was 0.00 ng/mL. For the same molecule, the “Concentration (ng/ml)” value (Male subjects, SAD arm NCT02022306, Dose 240.00, Predose) was 0.00 ng/mL, the “Concentration (ng/ml)” value (Male subjects, SAD arm NCT02022306, Dose 500.00, 30 Minutes) was 2.54 ng/mL and 3.61 ng/mL and 2.21 ng/mL and the “Concentration (ng/ml)” value (Male subjects, SAD arm NCT02022306, Dose 500.00, Predose) was 0.00 ng/mL. The Cmax (both sexes, human, plasma, oral, 0.5 mg, SAD 0.5 mg) was 0.5 ± 0.1 nM, the Cmax [9] was 1.5 ± 0.4 nM and the half-life [9] was 84.3 h. The Cmax [10] was 5.37 ± 1.8 nM, the half-life [10] was 71.7 ± 5.2 h and the Cmax [11] was 21 ± 7.9 nM. For the same molecule, the half-life [11] was 77 ± 14.2 h, the Cmax [12] was 37.4 ± 19 nM and the half-life [12] was 66.9 ± 9 h. The Cmax at 1 day (both sexes, human, plasma, oral, 60 mg, MAD 60 mg, day 1, read-out: Cmax Mean ± SD, D1) was 97.4 nM, the Cmax at 14 day (both sexes, human, plasma, oral, 60 mg, MAD 60 mg, day 14, read-out: Cmax Mean ± SD, D14) was 398 ± 146 nM and the half-life at 14 day (both sexes, human, plasma, oral, 60 mg, MAD 60 mg, day 14, read-out: t1/2 Mean ± SD, D14 (converted)) was 62.3 ± 10 h.
